# Assays:
# Assay in all cases: in vitro antibacterial evaluation, MIC by broth dilution
# Format in all cases: cell-based
# Enterococcus sp. = conditions: broth dilution, 18 hours at 35° C.
# How it was run: (§1)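 Broth dilution per NCCLS M7-A2 in Mueller-Hinton II medium, inoculum 5×10^5 CFU/mL, antibiotic range 64-0.06 μg/mL. MIC taken as lowest concentration inhibiting growth; Gram-positive panel includes recent clinical isolates resistant to methicillin, penicillin and/or vancomycin.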
# Streptococcus sp. = conditions: broth dilution, 18 hours at 35° C.
# How it was run: as §1
# Staphylococcus sp. = conditions: broth dilution, 18 hours at 35° C.
# How it was run: as §1
# Escherichia coli = conditions: 18 hours at 35° C.
structure (smiles),measurement,setting,value
CC(c1ccccc1)C1NC(=O)CNC(=O)C(CO)NC(=O)C(C(O)C2CNC(=N)N2C2OC(CO)C(O)C(O)C2O)NC(=O)C(C(O)C2CNC(=N)N2)NC(=O)C(Cc2ccc(OC3OC(CO)C(OC4OC5COC6(CC(C)(C)CC(C)(C)C6)OC5C(O)C4O)C(O)C3O)cc2)NC1=O (stereo not drawn) [Example 207],MIC Enterococcus avium (GC 4558),Enterococcus sp.,1 µg/mL
same,MIC Enterococcus faecalis (ATCC 29212),Enterococcus sp.,4 µg/mL
same,MIC Enterococcus faecalis (GC 2242),Enterococcus sp.,4 µg/mL
same,MIC Enterococcus faecalis (GC 2691),Enterococcus sp.,2 µg/mL
same,MIC Enterococcus faecalis (GC 3059),Enterococcus sp.,2 µg/mL
same,MIC Enterococcus faecalis (GC 4552),Enterococcus sp.,4 µg/mL
same,MIC Enterococcus faecalis (GC 4553),Enterococcus sp.,4 µg/mL
same,MIC Enterococcus faecalis (GC 4554),Enterococcus sp.,4 µg/mL
same,MIC Enterococcus faecalis (GC 6189),Enterococcus sp.,2 µg/mL
same,MIC Enterococcus faecium (GC 2243),Enterococcus sp.,4 µg/mL
same,MIC Enterococcus faecium (GC 4556),Enterococcus sp.,4 µg/mL
same,MIC Enterococcus faecium (GC 4557),Enterococcus sp.,2 µg/mL
same,MIC Enterococcus faecalis (ATCC 29212),"Enterococcus sp.; inoculum 5×10^5 CFU/mL, strain ATCC 29212",4 µg/mL
same,MIC Enterococcus faecalis (GC 2242),"Enterococcus sp.; inoculum 5×10^5 CFU/mL, strain GC 2242",4 µg/mL
same,MIC Enterococcus faecium (GC 2243),"Enterococcus sp.; inoculum 5×10^5 CFU/mL, strain GC 2243",4 µg/mL
same,MIC Enterococcus faecalis (GC 2691),"Enterococcus sp.; inoculum 5×10^5 CFU/mL, strain GC 2691",2 µg/mL
same,MIC Enterococcus faecalis (GC 3059),"Enterococcus sp.; inoculum 5×10^5 CFU/mL, strain GC 3059",2 µg/mL
same,MIC Enterococcus faecalis (GC 4552),"Enterococcus sp.; inoculum 5×10^5 CFU/mL, strain GC 4552",4 µg/mL
same,MIC Enterococcus faecalis (GC 4553),"Enterococcus sp.; inoculum 5×10^5 CFU/mL, strain GC 4553",4 µg/mL
same,MIC Enterococcus faecalis (GC 4554),"Enterococcus sp.; inoculum 5×10^5 CFU/mL, strain GC 4554",4 µg/mL
same,MIC Enterococcus faecium (GC 4556),"Enterococcus sp.; inoculum 5×10^5 CFU/mL, strain GC 4556",4 µg/mL
same,MIC Enterococcus faecium (GC 4557),"Enterococcus sp.; inoculum 5×10^5 CFU/mL, strain GC 4557",2 µg/mL
same,MIC Enterococcus avium (GC 4558),"Enterococcus sp.; inoculum 5×10^5 CFU/mL, strain GC 4558",1 µg/mL
same,MIC Enterococcus faecalis (GC 6189),"Enterococcus sp.; inoculum 5×10^5 CFU/mL, strain GC 6189",2 µg/mL
same,MIC Streptococcus agalactiae (GC 4564),Streptococcus sp.,<0.12 µg/mL
same,MIC Streptococcus pneumoniae (ATCC 6301),Streptococcus sp.,<0.12 µg/mL
same,MIC Streptococcus pneumoniae (GC 1894),Streptococcus sp.,<0.12 µg/mL
same,MIC Streptococcus pneumoniae (GC 4565),Streptococcus sp.,<0.12 µg/mL
same,MIC Streptococcus pyogenes (GC 4563),Streptococcus sp.,<0.12 µg/mL
same,MIC Streptococcus pneumoniae (ATCC 6301),"Streptococcus sp.; inoculum 5×10^5 CFU/mL, strain ATCC 6301",<0.12 µg/mL
same,MIC Streptococcus pneumoniae (GC 1894),"Streptococcus sp.; inoculum 5×10^5 CFU/mL, strain GC 1894",<0.12 µg/mL
same,MIC Streptococcus pyogenes (GC 4563),"Streptococcus sp.; inoculum 5×10^5 CFU/mL, strain GC 4563",<0.12 µg/mL
same,MIC Streptococcus agalactiae (GC 4564),"Streptococcus sp.; inoculum 5×10^5 CFU/mL, strain GC 4564",<0.12 µg/mL
same,MIC Streptococcus pneumoniae (GC 4565),"Streptococcus sp.; inoculum 5×10^5 CFU/mL, strain GC 4565",<0.12 µg/mL
same,MIC Staphylococcus aureus (ATCC 29213),Staphylococcus sp.; strain ATCC 29213,1 µg/mL
same,MIC Staphylococcus aureus (GC 1131),Staphylococcus sp.; strain GC 1131,2 µg/mL
same,MIC Staphylococcus aureus (GC 3051),Staphylococcus sp.; strain GC 3051,2 µg/mL
same,MIC Staphylococcus aureus (GC 3053),Staphylococcus sp.; strain GC 3053,1 µg/mL
same,MIC Staphylococcus aureus (GC 4541),Staphylococcus sp.; strain GC 4541,1 µg/mL
same,MIC Staphylococcus aureus (GC 4542),Staphylococcus sp.; strain GC 4542,1 µg/mL
same,MIC Staphylococcus aureus-SMITH (GC 4543),Staphylococcus sp.; strain GC 4543,1 µg/mL
same,MIC Staphylococcus aureus (GC 4544),Staphylococcus sp.; strain GC 4544,1 µg/mL
same,MIC Staphylococcus aureus (GC 4545),Staphylococcus sp.; strain GC 4545,1 µg/mL
same,MIC Staphylococcus haemolyticus (GC 4546),Staphylococcus sp.; strain GC 4546,1 µg/mL
same,MIC Coagulase Negative Staphylococcus (GC 4547),Staphylococcus sp.; strain GC 4547,1 µg/mL
same,MIC Coagulase Negative Staphylococcus (GC 4548),Staphylococcus sp.; strain GC 4548,0.5 µg/mL
same,MIC Coagulase Negative Staphylococcus (GC 4549),Staphylococcus sp.; strain GC 4549,0.5 µg/mL
same,MIC Coagulase Negative Staphylococcus (GC 4551),Staphylococcus sp.; strain GC 4551,4 µg/mL
same,MIC Escherichia coli (ATCC 25922),Escherichia coli,32 µg/mL
same,MIC Escherichia coli (GC 4559),Escherichia coli,64 µg/mL
same,MIC Escherichia coli (GC 4560),Escherichia coli,2 µg/mL

# Reference: patent US6914045B2, “Glycopeptide antibiotics” (Wyeth Holdings Corporation, priority 2001, dated 2005)
